The record followed here is PubChem BioAssay AID2060912 (Molecular Pharmacology Branch, DTP, NCI, 2025).

The subject of this assay is HUVEC/MSC spheroids viability. Nature of the assay: Human HUVEC/MSC cell line growth inhibition [KRAS2].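 For viability, T/C: percent of DMSO vehicle control luminescence so 100% = untreated viability.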 To be noted: for viability, T/C: stronger effect = lower value. An excerpt: Multicellular complex tumor spheroid response to RAS pathway inhibitors in combination with a targeted agents in patient-derived cell lines with oncogenic KRAS variants from multiple cancer types
A high-throughput screen of multi-cell type tumor spheroids was designed to identify active combinations of targeted small molecules and KRAS pathway inhibitors. Complex spheroids include a stromal component modeled by human endothelial cells (HUVEC) and fibroblasts modeled by human mesenchymal stem cells (MSCs). The concentration ranges selected for each drug and investigational agent were based upon clinically achievable concentrations if the clinical Cmax of the agent was known. * [This particular assayID is a followup dataset requested by reviewers of the manuscript. It is a test of the HUVEC and MSC without the tumor cells, and was conducted using different drug plates and a different plate layout.]
Compounds. The drugs and investigational agents: BI-3406 (NSC825286), BAY-293 (NSC824723), batoprotafib (TNO155; NSC825523), sotorasib (AMG 510; NSC818433), MRTX1257 (NSC819558), elimusertib (BAY 1895344; NSC800525), molibresib (GSK525762; NSC774829), temuterkib (LY3214996; NSC803410), venetoclax (NSC766270), alisertib (NSC759677), olaparib (NSC753686), talazoparib (NSC767125), erdafitinib (NSC781556), ipatasertib (NSC767898), cabozantinib (NSC761068), nintedanib (NSC756659), abemaciclib (NSC768073), docetaxel (NSC628503), trametinib (NSC758246), and sapanisertib (NSC764658) were obtained from the National Cancer Institute (NCI) Developmental Therapeutics Program Chemical Repository. The FDA-approved anticancer drug set is available from the Developmental Therapeutics Program. […] The stock solutions were prepared in dimethyl sulfoxide (DMSO, Sigma-Aldrich, St. Louis, MO, cat. D2650) at 800-fold the tested concentration and stored at -70 degrees C prior to their use. All drugs and investigational agents were tested over a range starting from a high concentration at or near the clinical Cmax and decreasing in half-log increments. If the clinical Cmax for an agent had not been determined, the highest concentration tested was 10 microM.
Cell Culture. All cells were maintained in an incubator at 37 degrees C and 5% CO2 with 95% humidity. The PDC lines were cultured according to standard operating procedures established by the NCI PDMR (https://pdmr.cancer.gov/sops/default.htm). Briefly, all PDCs were thawed and cultured in Matrigel-coated flasks prepared with a working solution of 1X Ham's F-12 nutrient mix, without supplementation (Invitrogen, Waltham, MA, cat. 11765054), 100 U/mL penicillin-streptomycin (Invitrogen, cat. 15140122), and 2.5% Matrigel (Corning Inc., Corning, NY, cat. 354248) for the first three passages. All PDCs were cultured in complete DMEM/F-12 media containing advanced DMEM/F-12 (Invitrogen, cat. 12634028), 4.9% defined fetal bovine serum, heat inactivated (HyClone Laboratories Inc., Logan, UT, cat. SH30070.03HI), 389 ng/mL hydrocortisone (Sigma-Aldrich, cat. H4001), 9.7 ng/mL human EGF recombinant protein (Invitrogen, cat. PHG0313), 23.4 microg/mL adenine (Sigma-Aldrich, cat. A2786), 97.3 U/mL penicillin-streptomycin (Invitrogen, cat. 15140122), 1.9 mM L-glutamine (Invitrogen, cat. 25030081), and 9.7 microM Y-27632 dihydrochloride (Tocris Bioscience, Bristol, United Kingdom, cat. 1254). The PDCs were cultured in complete DMEM/F12 media without 9.7 microM Y-27632 dihydrochloride for at least two passages prior to the screen. The established cell line HOP-62 was cultured in RPMI 1640 medium, HEPES (Invitrogen, cat. 22400105) with 10% defined fetal bovine serum (HyClone Laboratories Inc., cat. SH30070.03) and 2 mM L-glutamine (Invitrogen, cat. 25030081). The pooled donor HUVEC were cultured in endothelial cell growth medium 2 (PromoCell, Heidelberg, Germany, cat. C-22011) and the hMSC were cultured in mesenchymal stem cell growth medium 2 (PromoCell, cat. C-28009). […]

The mark [1] stands for this setting: curve of first compound, second compound 0.0316 µM.
[2] abbreviates: curve of first compound, second compound 0.1 µM.
[3] abbreviates: curve of first compound, second compound 0.316 µM.
Where [4] appears, read: curve of first compound, second compound 1 µM.
Where [5] appears, read: curve of first compound, second compound 3.16 µM.
[6] abbreviates: curve of first compound, second compound 10 µM.
Setting [7] is: second compound 0.0316 µM, first compound 0.0316 µM.
Where [8] appears, read: second compound 0.0316 µM, first compound 0.1 µM.
[9] abbreviates: second compound 0.0316 µM, first compound 0.316 µM.
The mark [10] stands for this setting: second compound 0.0316 µM, first compound 1 µM.
Setting [11] is: second compound 0.0316 µM, first compound 3.16 µM.
Where [12] appears, read: second compound 0.0316 µM, first compound 10 µM.
The mark [13] stands for this setting: second compound 0.1 µM, first compound 0.0316 µM.
[14] abbreviates: second compound 0.1 µM, first compound 0.1 µM.
Where [15] appears, read: second compound 0.1 µM, first compound 0.316 µM.
Setting [16] is: second compound 0.1 µM, first compound 1 µM.
[17] abbreviates: second compound 0.1 µM, first compound 3.16 µM.
Setting [18] is: second compound 0.1 µM, first compound 10 µM.
Setting [19] is: second compound 0.316 µM, first compound 0.0316 µM.
The mark [20] stands for this setting: second compound 0.316 µM, first compound 0.1 µM.
[21] abbreviates: second compound 0.316 µM, first compound 0.316 µM.
Setting [22] is: second compound 0.316 µM, first compound 1 µM.
Setting [23] is: second compound 0.316 µM, first compound 3.16 µM.
Where [24] appears, read: second compound 0.316 µM, first compound 10 µM.
[25] abbreviates: second compound 1 µM, first compound 0.0316 µM.
Where [26] appears, read: second compound 1 µM, first compound 0.1 µM.
The mark [27] stands for this setting: second compound 1 µM, first compound 0.316 µM.
The mark [28] stands for this setting: second compound 1 µM, first compound 1 µM.
[29] abbreviates: second compound 1 µM, first compound 3.16 µM.
[30] abbreviates: second compound 1 µM, first compound 10 µM.
[31] abbreviates: second compound 3.16 µM, first compound 0.0316 µM.
Where [32] appears, read: second compound 3.16 µM, first compound 0.1 µM.
Where [33] appears, read: second compound 3.16 µM, first compound 0.316 µM.
[34] abbreviates: second compound 3.16 µM, first compound 1 µM.
The mark [35] stands for this setting: second compound 3.16 µM, first compound 3.16 µM.
Where [36] appears, read: second compound 3.16 µM, first compound 10 µM.
The mark [37] stands for this setting: second compound 10 µM, first compound 0.0316 µM.
Where [38] appears, read: second compound 10 µM, first compound 0.1 µM.
Setting [39] is: second compound 10 µM, first compound 0.316 µM.
Where [40] appears, read: second compound 10 µM, first compound 1 µM.
[41] abbreviates: second compound 10 µM, first compound 3.16 µM.
Where [42] appears, read: second compound 10 µM, first compound 10 µM.

As a reminder, the IC50 is the concentration needed to halve the response being measured. By viability, T/C is commonly meant the result in the treated group divided by that in the control group, in per cent.

Take `Cn1nccc1Nc1nccc(-c2cc3c(s2)C(C)(C)N(CCN2CCOCC2)C3=O)n1` + C=CC(=O)N1CCN(c2nc(=O)n(-c3c(C)ccnc3C(C)C)c3nc(-c4c(O)cccc4F)c(F)cc23)C(C)C1: the IC50 under setting [1] came to 2.98 µM; the concentration for half-maximal inhibition (IC50) under setting [2] amounted to 2.65 µM; the half-inhibitory concentration (IC50) under setting [3] was determined as 2.7 µM; the IC50 under setting [4] amounted to 3.09 µM; the half-inhibitory concentration (IC50) under setting [5] was found to be 2.66 µM; the IC50 under setting [6] was determined as 2.56 µM. Also, the viability, T/C runs as follows: under setting [7], 86.7%; under setting [8], 102%; under setting [9], 112%; under setting [10], 93.3%; under setting [11], 47.7%; under setting [12], 5.76%. The viability, T/C was 105% under setting [13]; 108% under setting [14]; 105% under setting [15]; 93.4% under setting [16]; 42.1% under setting [17]; 9.02% under setting [18]. Besides, the viability, T/C was 99.2% under setting [19]; 114% under setting [20]; 98.6% under setting [21]; 99.6% under setting [22]; 42.2% under setting [23]; 5.77% under setting [24]. In addition, the viability, T/C under setting [25] was 99.8%; the viability, T/C under setting [26] was 118%; the viability, T/C under setting [27] was 129%; the viability, T/C under setting [28] was 90.2%; the viability, T/C under setting [29] was 51.1%; the viability, T/C under setting [30] was 4.48%. The viability, T/C by setting is: under setting [31], 115%; under setting [32], 129%; under setting [33], 112%; under setting [34], 84%; under setting [35], 45.3%; under setting [36], 4.12%. Besides, the viability, T/C under setting [37] was 150%; the viability, T/C under setting [38] was 128%; the viability, T/C under setting [39] is 135%; the viability, T/C under setting [40] is 106%; the viability, T/C under setting [41] was 37%; the viability, T/C under setting [42] was 3.03%.
In the case of `COc1cc2nccc(Oc3ccc(NC(=O)C4(C(=O)Nc5ccc(F)cc5)CC4)cc3)c2cc1OC`, the viability, T/C was 76.8% [middle of 5 runs] (compound 0.0316 µM); 79% [middle of 5 runs] (compound 0.1 µM); 70.8% [middle of 5 runs] (compound 0.316 µM); 71.4% [middle of 5 runs] (compound 1 µM); 36% [middle of 5 runs] (compound 10 µM). Further, the IC50 (curve of compound) was 6.87 µM [middle of 5 runs].
In the case of `CC1OCC2(CCN(c3cnc(Sc4ccnc(N)c4Cl)c(N)n3)CC2)C1N` (configuration not stated), the IC50 (compound alone, run of 05/05/2024) is above 10 µM and the IC50 (curve of compound) was above 10 µM.
As for `CC1OCC2(CCN(c3cnc(Sc4ccnc(N)c4Cl)c(N)n3)CC2)C1N` (configuration not stated) + C=CC(=O)N1CCN(c2nc(=O)n(-c3c(C)ccnc3C(C)C)c3nc(-c4c(O)cccc4F)c(F)cc23)C(C)C1, the IC50 under setting [1] was above 10 µM; the IC50 under setting [2] was above 10 µM; the IC50 under setting [3] is above 10 µM; the IC50 under setting [4] was above 10 µM; the IC50 under setting [5] was above 10 µM; the IC50 under setting [6] was above 10 µM. The viability, T/C is, setting by setting: under setting [7], 118%; under setting [8], 101%; under setting [9], 105%; under setting [10], 80.5%; under setting [11], 70.1%; under setting [12], 70.5%. For the same compound, the viability, T/C was 110% under setting [13]; 107% under setting [14]; 97.2% under setting [15]; 84.3% under setting [16]; 72% under setting [17]; 67.9% under setting [18]. Besides, the viability, T/C runs as follows: under setting [19], 96.8%; under setting [20], 129%; under setting [21], 92.1%; under setting [22], 88%; under setting [23], 81.8%; under setting [24], 78.5%. Also, the viability, T/C is, setting by setting: under setting [25], 101%; under setting [26], 126%; under setting [27], 105%; under setting [28], 99.7%; under setting [29], 89%; under setting [30], 77.5%. The viability, T/C is, setting by setting: under setting [31], 116%; under setting [32], 136%; under setting [33], 111%; under setting [34], 92.7%; under setting [35], 109%; under setting [36], 71.3%. The viability, T/C runs as follows: under setting [37], 104%; under setting [38], 121%; under setting [39], 120%; under setting [40], 98.3%; under setting [41], 95.5%; under setting [42], 54.7%.
